The subject of assay [1] is Thy1-αSyn mice (ASO) mono-colonized with WT E. coli. In words: Motor function of germ-free Thy1-αSyn (ASO) mice mono-colonized with WT E. coli, EGCG in drinking water. It is filed as in vivo, mouse. As to conditions: EGCG ad lib in drinking water vs vehicle. Here is the method:
Evidence has linked unregulated α-synuclein expression in humans to a higher risk of PD, providing an epidemiological foundation for the Thy1-α-synuclein mouse model. Defects in coordinated motor tasks become evident at 12 weeks of age. Motor function is measured via four tests: beam traversal, pole descent, nasal adhesive removal, and hind limb clasping reflexes, as previously validated in this model (described in Fleming et al., J. Neurosci. 24, 9434-9440 (2004), and Sampson et al., Cell 167(6):1469-1480 (2016) the content of which are hereby expressly incorporated by reference in its entirety). […] Removal of an adhesive from the nasal bridge, a test of fine motor control, is also impaired in SPF-ASO mice compared to SPF-WT mice, as is the hind limb clasping reflex, a measure of striatal dysfunction.
(§1) Germ-free Thy1-αSyn mice (ASO) mono-colonized with WT E. coli at 5-6 weeks of age, and given water alone (Vehicle: Veh) or treated with EGCG ad lib in drinking water (+EGCG). RNA was extracted from fecal pellets and csgA expression quantified by qRT-PCR, relative to rrsA. FIG. 1C is a graph showing fold-change in csgA expression. Motor function was assessed at 15-16 weeks of age by quantifying beam traversal time (FIG. 1D), pole descent time (FIG. 1E), nasal adhesive removal time (FIG. 1F), hindlimb clasping score (FIG. 1G), and wire hang tests (FIG. 1H). Time to cross, time to descent, time to remove, and hindlimb score were lower in the EGCG-treated mice, while time to fall was higher in the EGCG-treated mice compared to vehicle treated control.
Inhibition of functional amyloid formation was studied. Germ-free Thy1-αSyn mice (ASO) were monocolonized with wild-type E. coli and treated with water alone (Vehicle, Veh) or given EGCG ad lib in drinking water (+EGCG). Motor function was assessed at 10, 12, and 15 weeks of age by quantifying beam traversal time (FIG. 5A), pole descent time (FIG. 5B), nasal adhesive removal time (FIG. 5C), hindlimb clasping score (FIG. 5D), and wire hang tests (FIG. 5E). FIG. 5F depicts principal component analysis of compiled motor scores from FIGS. 5A-D. Thin sections of brain were stained for Iba1 (microglia) and morphological characteristics quantified of microglia resident in the striatum (FIGS. 5G-H) and substantia nigra (FIGS. 5I-J). N=10-11 (FIGS. 5A-F), n=3 (FIGS. 5G-J) (averaged from 5-7 cells for branching). Bars represent the mean and standard error. Time courses analyzed by two-way ANOVA, with Sidak post-hoc test for between group comparisons indicated above individual time points, and brackets indicating significance between treatments. Data in (FIGS. 5G-J) analyzed by two-tailed t-test. *p≤0.05; **p≤0.01; ****p≤0.0001.

Assay [2] relates to αSyn aggregates in brain of Thy1-αSyn mice (ASO). Briefly: Brain αSyn aggregates in germ-free ASO mice mono-colonized with WT E. coli, EGCG in drinking water. It is filed as in vivo, mouse. Particulars: EGCG-treated vs vehicle. Here is the method: as §1, with “control. […]” for “control.”
FIGS. 1L-M show quantification of insoluble αSyn fibrils in the striatum (FIG. 1L) and ventral midbrain (FIG. 1M) by dot blot assay. Thin sections of brain were stained for Iba1 (microglia), 3D cellular reconstructions generated, and morphological characteristics quantified from microglia resident in the striatum (FIG. 1N) and substantia and nigra (FIG. 1O). n=3 (FIGS. 1A, 1B, 1N, 1O), n=8 (FIG. 1C), n=10-11 (FIGS. 1D-I), n=4 (FIGS. 1L-M). […] Data analyzed by one-way ANOVA with Tukey post-hoc test for FIG. 1A, two-tailed Mann-Whitney for FIGs. […]

The next assay addresses T1, human α-synuclein (Homo sapiens, UniProt P37840).
T1 construct: made in house; host or cells: E. coli
Briefly: In vitro Thioflavin T assay of α-synuclein aggregation. In kind it is biochemical. Particulars: compounds at 50 μM, 50 μM α-synuclein, ThT fluorescence at 40 hours. How it is done: In Vitro Thioflavin T Assay to Determine the Effects of Compounds on α-Synuclein Aggregation.
The ammonium sulfate pellet was washed with an equal volume of 100 mM ammonium acetate in ethanol, pelleted via centrifugation, washed twice with ethanol, dried overnight, resuspended in 10 mM Tris pH 7.4, and passed through a 50 kDa cut-off column. The assay was conducted in 96-well black microplates with a single 2 mm bead in each well, 40 μM ThioflavinT, 1% DMSO, 50 μM α-synuclein, 100 mM sodium chloride, 9.3 mM potassium phosphate pH 7.3, 4.6 mM Tris pH 7.4 (added as the solvent for α-synuclein or independently for controls lacking α-synuclein), and compounds at 1 μM or 50 μM. […] Readings were performed hourly for up to 73 hours. The effect of compounds on α-synuclein aggregation in the assay was determined with data from 40 hours, following the plateau of the fluorescent signal in the untreated (no compound) control wells containing α-synuclein. Fluorescence values for each compound with α-synuclein were first adjusted by subtracting the average fluorescence of the compound in the absence of α-synuclein.

SMILES strings stand for the structures. “Also recorded” adds a separate entry of the source. Like-named read-outs stand apart in the source and are kept apart here.

For orientation: inhibition means the relative decrease from the control value, in per cent. For `O=C(O[C@@H]1Cc2c(O)cc(O)cc2O[C@@H]1c1cc(O)c(O)c(O)c1)c1cc(O)c(O)c(O)c1` [EGCG, epigallocatechin gallate], in assay [1], the “progressive motor deficits exacerbated by E. coli (motor performance)” value is recorded as “successfully dampens progressive motor deficits”. Moreover, in assay [1] (15-16 weeks of age), the “beam traversal time (time to cross)” value is “lower”, the hindlimb clasping score result was “lower”, the “nasal adhesive removal time (time to remove)” value is listed as “lower” and the “pole descent time (time to descent)” value is “lower”. The “wire hang test (time to fall)” value in assay [1] (15-16 weeks of age) was “higher”. Also, the “αSyn aggregation in striatum and midbrain” value in assay [2] was “preventing αSyn aggregation in both the striatum and midbrain”. In assay [2] (immunofluorescence microscopy), the “Proteinase K resistant αSyn aggregates in the substantia nigra” value is “lower; also recorded: Fewer”. In addition, on human α-synuclein (read-out: Inhibition of Aggregation αSyn), the inhibition at 50 µM came to 99%. Besides, on human α-synuclein (read-out: Inhibition of Aggregation αSyn (compound activity range)), the inhibition at 50 µM is above 60%.

The values above are taken from patent US11147792B2, “Inhibitors of microbially induced amyloid” (Axial Therapeutics, Inc, priority 2017, dated 2021).
